Laboratory results published in the supplement of paper PMC10307832.

What was measured:
Test in all cases: relative viability (nuclei count vs DMSO), 5 days (fraction); higher = more cells survive
CAL-12T = system: CAL-12T
Procedure, shortened: (§1)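 Relative viability divides the nuclei count in treated wells by that in vehicle wells. Lung cancer cell lines were seeded in 1536-well plates, dosed by pin tool the next day, and fixed and stained after 5 days in one step with final 0.05% Triton X-100, 1% formaldehyde and 1 ug/ml Hoechst. Dosing was a single drug or a fixed anchor-drug dose plus five library-drug doses (not always all listed) in √10 steps, and values are medians of duplicate plates imaged at 4×.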

PC-3 [JPC-3] = system: PC-3 [JPC-3]
Procedure, shortened: as §1

NCI-H441 = system: NCI-H441
Procedure, shortened: as §1

COR-L23 = system: COR-L23
Procedure, shortened: as §1

UMC-11 = system: UMC-11
Procedure, shortened: as §1

NCI-H1755 = system: NCI-H1755
Procedure, shortened: as §1

NCI-H1734 = system: NCI-H1734
Procedure, shortened: as §1

EMC-BAC-2 = system: EMC-BAC-2
Procedure, shortened: as §1

NCI-H1437 = system: NCI-H1437
Procedure, shortened: as §1

NCI-H3122 = system: NCI-H3122
Procedure, shortened: as §1

LK-2 = system: LK-2
Procedure, shortened: as §1

NCI-H1651 = system: NCI-H1651
Procedure, shortened: as §1

NCI-H2347 = system: NCI-H2347
Procedure, shortened: as §1

ABC-1 = system: ABC-1
Procedure, shortened: as §1

HOP-62 = system: HOP-62
Procedure, shortened: as §1

RERF-LC-KJ = system: RERF-LC-KJ
Procedure, shortened: as §1

HARA = system: HARA
Procedure, shortened: as §1

NCI-H727 = system: NCI-H727
Procedure, shortened: as §1

SK-LU-1 = system: SK-LU-1
Procedure, shortened: as §1

NCI-H1650 = system: NCI-H1650
Procedure, shortened: as §1

HCC-366 = system: HCC-366
Procedure, shortened: as §1

Cc1csc(=NC2CCCCC2)n1/N=C/c1ccc(O)c(O)c1O [MIM1] + CC(=O)c1c(C)c2cnc(Nc3ccc(N4CCNCC4)cn3)nc2n(C2CCCC2)c1=O [Palbociclib] (partner 0.5 µM)
relative viability (CAL-12T; first compound 0.2 µM): 0.526
relative viability (CAL-12T; first compound 0.6325 µM): 0.386
relative viability (CAL-12T; first compound 2 µM): 0.481
relative viability (CAL-12T; first compound 6.325 µM): 0.268
relative viability (CAL-12T; first compound 20 µM): 0.118
relative viability (PC-3 [JPC-3]; first compound 0.2 µM): 0.544
relative viability (PC-3 [JPC-3]; first compound 0.6325 µM): 0.538
relative viability (PC-3 [JPC-3]; first compound 2 µM): 0.493
relative viability (PC-3 [JPC-3]; first compound 6.325 µM): 0.446
relative viability (PC-3 [JPC-3]; first compound 20 µM): 0.343
relative viability (NCI-H441; first compound 0.2 µM): 0.273
relative viability (NCI-H441; first compound 0.6325 µM): 0.266
relative viability (NCI-H441; first compound 2 µM): 0.205
relative viability (NCI-H441; first compound 6.325 µM): 0.186
relative viability (NCI-H441; first compound 20 µM): 0.114
relative viability (COR-L23; first compound 0.2 µM): 0.301
relative viability (COR-L23; first compound 0.6325 µM): 0.328
relative viability (COR-L23; first compound 2 µM): 0.258
relative viability (COR-L23; first compound 6.325 µM): 0.18
relative viability (COR-L23; first compound 20 µM): 0.138
relative viability (UMC-11; first compound 0.2 µM): 0.368
relative viability (UMC-11; first compound 0.6325 µM): 0.318
relative viability (UMC-11; first compound 2 µM): 0.33
relative viability (UMC-11; first compound 6.325 µM): 0.362
relative viability (UMC-11; first compound 20 µM): 0.338
relative viability (NCI-H1755; first compound 0.2 µM): 0.432
relative viability (NCI-H1755; first compound 0.6325 µM): 0.453
relative viability (NCI-H1755; first compound 2 µM): 0.431
relative viability (NCI-H1755; first compound 6.325 µM): 0.419
relative viability (NCI-H1755; first compound 20 µM): 0.306
relative viability (NCI-H1734; first compound 0.2 µM): 0.32
relative viability (NCI-H1734; first compound 0.6325 µM): 0.361
relative viability (NCI-H1734; first compound 2 µM): 0.34
relative viability (NCI-H1734; first compound 6.325 µM): 0.322
relative viability (NCI-H1734; first compound 20 µM): 0.193
relative viability (EMC-BAC-2; first compound 0.2 µM): 0.543
relative viability (EMC-BAC-2; first compound 0.6325 µM): 0.542
relative viability (EMC-BAC-2; first compound 2 µM): 0.476
relative viability (EMC-BAC-2; first compound 6.325 µM): 0.492
relative viability (EMC-BAC-2; first compound 20 µM): 0.244
relative viability (NCI-H1437; first compound 0.2 µM): 0.305
relative viability (NCI-H1437; first compound 0.6325 µM): 0.35
relative viability (NCI-H1437; first compound 2 µM): 0.312
relative viability (NCI-H1437; first compound 6.325 µM): 0.232
relative viability (NCI-H1437; first compound 20 µM): 0.149
relative viability (NCI-H3122; first compound 0.2 µM): 0.186
relative viability (NCI-H3122; first compound 0.6325 µM): 0.195
relative viability (NCI-H3122; first compound 2 µM): 0.174
relative viability (NCI-H3122; first compound 6.325 µM): 0.187
relative viability (NCI-H3122; first compound 20 µM): 0.124
relative viability (LK-2; first compound 0.2 µM): 0.774
relative viability (LK-2; first compound 0.6325 µM): 0.495
relative viability (LK-2; first compound 2 µM): 0.468
relative viability (LK-2; first compound 6.325 µM): 0.725
relative viability (LK-2; first compound 20 µM): 0.223
relative viability (NCI-H1651; first compound 0.2 µM): 0.542
relative viability (NCI-H1651; first compound 0.6325 µM): 0.531
relative viability (NCI-H1651; first compound 2 µM): 0.521
relative viability (NCI-H1651; first compound 6.325 µM): 0.416
relative viability (NCI-H1651; first compound 20 µM): 0.541
relative viability (NCI-H2347; first compound 0.2 µM): 0.408
relative viability (NCI-H2347; first compound 0.6325 µM): 0.404
relative viability (NCI-H2347; first compound 2 µM): 0.446
relative viability (NCI-H2347; first compound 6.325 µM): 0.42
relative viability (NCI-H2347; first compound 20 µM): 0.356
relative viability (ABC-1; first compound 0.2 µM): 0.603
relative viability (ABC-1; first compound 0.6325 µM): 0.988
relative viability (ABC-1; first compound 2 µM): 0.544
relative viability (ABC-1; first compound 6.325 µM): 0.406
relative viability (ABC-1; first compound 20 µM): 0.473
relative viability (HOP-62; first compound 0.2 µM): 0.454
relative viability (HOP-62; first compound 0.6325 µM): 0.44
relative viability (HOP-62; first compound 2 µM): 0.404
relative viability (HOP-62; first compound 6.325 µM): 0.431
relative viability (HOP-62; first compound 20 µM): 0.127
relative viability (RERF-LC-KJ; first compound 0.2 µM): 0.952
relative viability (RERF-LC-KJ; first compound 0.6325 µM): 0.995
relative viability (RERF-LC-KJ; first compound 2 µM): 0.686
relative viability (RERF-LC-KJ; first compound 6.325 µM): 0.613
relative viability (RERF-LC-KJ; first compound 20 µM): 0.227
relative viability (HARA; first compound 0.2 µM): 0.253
relative viability (HARA; first compound 0.6325 µM): 0.302
relative viability (HARA; first compound 2 µM): 0.281
relative viability (HARA; first compound 6.325 µM): 0.251
relative viability (HARA; first compound 20 µM): 0.169
relative viability (NCI-H727; first compound 0.2 µM): 0.634
relative viability (NCI-H727; first compound 0.6325 µM): 0.686
relative viability (NCI-H727; first compound 2 µM): 0.605
relative viability (NCI-H727; first compound 6.325 µM): 0.546
relative viability (NCI-H727; first compound 20 µM): 0.472
relative viability (SK-LU-1; first compound 0.2 µM): 0.442
relative viability (SK-LU-1; first compound 0.6325 µM): 0.397
relative viability (SK-LU-1; first compound 2 µM): 0.368
relative viability (SK-LU-1; first compound 6.325 µM): 0.418
relative viability (SK-LU-1; first compound 20 µM): 0.307
relative viability (NCI-H1650; first compound 0.2 µM): 0.446
relative viability (NCI-H1650; first compound 0.6325 µM): 0.316
relative viability (NCI-H1650; first compound 2 µM): 0.256
relative viability (NCI-H1650; first compound 6.325 µM): 0.137
relative viability (NCI-H1650; first compound 20 µM): 0.136
relative viability (HCC-366; first compound 0.2 µM): 0.384
relative viability (HCC-366; first compound 2 µM): 0.236
relative viability (HCC-366; first compound 6.325 µM): 0.127
relative viability (HCC-366; first compound 20 µM): 0.0225
